Laboratory results from patent US5750141A, “Administration of vaso-active agent and therapeutic agent” (The University of Queensland, priority 1993, dated 1998).
Read-outs that look alike come from different tables or passages of the source.

What was measured:
[1] = topical ointment; cited from earlier work
[2] = assay type: in vivo, rat (male Wistar)
Description: Male Wistar rats (348±20 g) were anaesthetised i.p. with sodium pentobarbitone (60 mg/kg) and laid abdomen down on a heating pad (37° C.) with the left hindleg extending over the edge of the pad. The left hind foot was cleaned with cotton wool swabs soaked in a dilute solution of ethanol then dried. The foot was then immersed, to a standard position marked on the ankle joint, in 2 ml of vehicle solution (30% propylene glycol/30% ethanol/40% water) containing ^3 H-water (Sigma, Australia) with (n=3) or without (n=3) 2% GTN (David Bull Laboratories Pty Ltd. Melbourne, Australia). Solutions were left in contact with the foot for 2 hours with 10 μl samples taken at time zero and at the end of the absorption period. After 2 hrs a blood sample was taken from the tail vein and animals were sacrificed by cervical dislocation whilst still anaesthetised. The rat paws were cleaned as previously to remove any excess radiolabelled solute from the surface. Skin from the upper part of the foot, the foot pad and foot muscles were dissected from each treated and contralateral paw, placed into preweighed scintillation vials, solubilised with NCS (Amersham, Australia) and counted for radioactivity, along with the 10 μl solution samples, following the addition of the appropriate scintillation cocktail. Statistical analysis was performed using a Student unpaired t-test, with significance taken at the P<0.05 level.

[3] = for Change in salicylic acid clearance from solutions applied to the dermis: FIG. 1
Description: In vivo dermal penetration and local tissue uptake studies: The rats were lightly anaesthetised by pentobarbitone (35mg/kg) and their body temperature maintained at 37° C. by placing them on a heating pad. The hair from the 4 cm^2 dorsum area were removed by electric clippers and the epidermis removed by means of an electrodermatome set at a thickness of 80 microns. A dermal absorption cell was adhered to the exposed rat dermis and warmed to 37° C. by means of an external heating device.
Solution of solute spiked with corresponding labelled substance and containing an appropriate concentration of phenylephrine, previously warmed to 37° C., was introduced into the dermal absorption cell and the solution stirred by a glass stirrer driven by an external motor. Samples were removed from the donor cell at predetermined times and placed in preweighed scintillation vials. The glass cell was removed from the rat skin at the end of two hour dermal perfusion study and the application area wiped dry with blotting paper. A blood sample was then taken from the tail vein and the animals sacrificed with overdoes of anaesthetic ether. Immediately thereafter the tissues below the treated site i.e. skin, subcutaneous tissue, fascia, muscle lining or superficial muscle, muscle, fat pad and deep muscle were removed from dissection and placed in preweighed scintillation vials. Similarly, the tissues below the contralateral side were also removed. Tissue and plasma samples were stored at -20° C. prior to analysis. In vivo dermal penetration and local tissue uptake studies (sacrificed animals): The rats were initially anaesthetised by intraperitoneal injection of pentobarbitone (35 mg/kg) and after removing epidermis as described above, were sacrificed by overdose of ether. Dermal perfusion and tissue uptake studies were then conducted in postmortem rats.
The phenylephrine induced reduction in blood flow to dermis was determined by monitoring the dermal clearance of tritiated water in presence of phenylephrine.
Aqueous samples removed from the glass cells in in vivo dermal perfusion studies were directly mixed with 5 ml of liquid scintillation cocktail BCS and counted on liquid scintillation counter. The tissue samples were solubilised with 50 μl of water and 1 ml of tissue solubilizer NCS at 50° C. for 6-8 hrs.

[4] = parameters: species or system rat (male Wistar)
Description: The following experiment was designed to determine the effect of changes in tissue blood flow (perfusion) on the transdermal absorption and subsequent tissue distribution of 3H-water.
Hindlimb perfusions: Briefly, rats (malc Wistar 280-340 g) were anaesthetised with sodium pentobarbitone 60 mg/ig i.p., the abdomen opened and the right femoral artery cannulated (PESO) via the aorta. A second cannula (PE205) was placed in the dorsal vena cava, and the hindlimb perfused in a humidicrib at 37° C. with oxygenated (95%O2 /5%CO2) Krebs Heinseleit Ringer (mM: NaCl 118, KCl 4.74, KH2 PO4 1.18, MgSO4.7H2 O 0 1.18 CaCl2.2H2 O 2.54, NaHCO3 25, Glucose 11.1;pH 7.4, 37° C.), containing 4% bovine serum albumin (Fraction V, Sigma). Once the perfusions were established rats were sacrificed by creating a pneumothorax and turned over so that cells could be attached to the outer thigh of the perfused limb. The pressure of the inflowing perfusate was continuously monitored, mean pressures were in the order of 30 and 40 mmHg at 4 and 8ml/min respectively. The perfused preparation is stable for up to 2 hrs, as validated by testing inflowing and outflowing perfusate samples for pH, dissolved oxygen concentrations, together with various enzyme and ion concentrations. The perfusion flow rates were controlled by a graduated peristaltic pump, and were measured at the beginning and end of each experiment.
Glass diffusion cells (8 cm high, 1.8 cm internal diameter, 2.54 cm^2 skin application area), were fixed to the skin on the outer thigh of the perfused hindlimb with adhesive. The application area on the hindlimb was first depilated with commercial Nair™ hair-removal cream and the epidermis removed using a dermatome before the perfusion was established. Solutions (2 ml) containing trace amounts of the radiolabelled ^3 H-water (Sigma Chemical Co, Australia), in phosphate buffered saline (pH 7.4, 37° C.) were introduced into the cell at time 0. Absorption studies were conducted for 90 minutes, after which time the cell contents were drawn out with a pipette, the cell removed and the tissues from beneath the position of the cell sequentially dissected into preweighed vials for weight determination, solubilisation and liquid scintillation counting.

[5] = assay type: in vivo, rat (male Wistar); remark: listed apart in the source
[6] = reductions in blood flow; cited from earlier work
[7] = 30° C.; Michaels et al.; cited from earlier work
[8] = postmortem conditions; cited from earlier work
[9] = nitroglycerine; cited from earlier work
[10] = 2% GTN vs vehicle, 2 hours, FIG. 5

Q: For `CCCCC[C@H](O)/C=C/[C@@H]1[C@H]2C/C(=C/CCCC(=O)O)O[C@H]2C[C@H]1O` [Prostaglandin I2 (PGI2)], which “Effectiveness in the treatment of skin ulcers” value [1] is on record?
A: effective in the treatment of skin ulcers

Q: For `O` [Water], which “Concentration of water in upper skin and muscle tissues of the contralateral limb” value ([2]; 2% GTN vs vehicle) is on record?
A: significant increase

Q: What about the “Concentration in the outer skin or foot pad of the rat paw” value [2, 10] of the same compound?
A: no significant change

Q: What about the “Concentration of water in the deeper foot muscles” value [2, 10] of the same compound?
A: highly significant increase

Q: What about the “Plasma concentration of water” value ([2]; 2% GTN vs vehicle, 2 hours, P=0.046, FIG. 5) of the same compound?
A: significant increase

Q: And the “Underlying tissue concentration of topically coadministered 3H-water” value ([2]; topical GTN, anaesthetised animals)?
A: significantly increase

Q: And the “Dermal clearance (Mean ± S.D.)” value ([3]; Control (no phenylephrine), anaesthetised rats, 37° C., two hour study)?
A: 1.10 ± 0.24 mL/h

Q: And the “Dermal clearance (Mean ± S.D.)” value ([3]; Phenylephrine (1:5000))?
A: 0.40 ± 0.02 mL/h

Q: What about the “Dermal clearance (Mean ± S.D.)” value ([3]; Phenylephrine (1:20000)) of the same compound?
A: 0.53 ± 0.05 mL/h

Q: And the “Dermal clearance (Mean ± S.D.)” value ([3]; Sacrificed animals)?
A: 0.36 ± 0.02 mL/h

Q: What about the “Dependence of tissue concentrations on perfusion flow rate” value ([4]; 4 vs 8 ml/min) of the same compound?
A: great dependence on perfusion flow rate

Q: What about the “Tissue concentration of water in dermis (2 mm) and superficial muscle layer (5 mm)” value ([4]; 8 ml/min vs 4 ml/min, p<0.05) of the same compound?
A: statistically lower

Q: And the “Tissue concentration of water in the deeper muscle layers” value ([4]; lower flow rate (4 ml/min))?
A: higher concentrations

Q: What about the “Increase in clearance from the dermal cell” value ([4]; perfusion flow rate raised from 4 ml/min to 8 ml/min, p<0.05, 90 minutes, pH 7.4, 37° C.) of the same compound?
A: 31%

Q: What about the “Concentration in plasma and contralateral tissues” value ([5]; in the presence of phenylephrine) of the same compound?
A: decreased

Q: What about the “Concentration in tissues below the application area” value ([5]; in the presence of phenylephrine, FIGS. 3 & 4) of the same compound?
A: increased

Q: What about the “Absorption from dermal and subcutaneous sites” value [6] of the same compound?
A: significant reductions in absorption

Q: With `CN[C@@H](C)[C@H](O)c1ccccc1` [ephedrine] as the compound, how does the “Maximum flux through skin” value [7] read?
A: 250-400 μg/cm^2 per hr

Q: Which “Disappearance from dermal and subcutaneous sites” value [8] does the source give for `CN(Cc1cnc2nc(N)nc(N)c2n1)c1ccc(C(=O)N[C@@H](CCC(=O)O)C(=O)O)cc1` [methotrexate] here?
A: reduced

Q: Which Water solubility [9] does the source give for `O=[N+]([O-])OCC(CO[N+](=O)[O-])O[N+](=O)[O-]` [nitroglycerine] here?
A: 1300 µg/mL

Q: What does the source list for `O=C(O)c1ccccc1O` [salicylic acid]?
A: Change in salicylic acid clearance from solutions applied to the dermis ([3]; increasing phenylephrine concentration up to 0.05%): decreased up to phenylephrine concentration of 0.05%; Change in salicylic acid clearance from solutions applied to the dermis ([3]; phenylephrine 0.1%): no further decrease; Plasma levels and levels in contralateral tissues ([5]; PE concentration of 0.1%, FIG. 2a-h): sudden increase; Concentration in underlying tissues (fraction of initial concentration) ([5]; PE concentrations above 0.01%, FIG. 2a-g): approach a constant value; Concentration in underlying tissues (fraction of initial concentration) ([5]; PE up to 0.01%, underlying tissues except for fat pad, FIG. 2a-g): increase with increase in concentration of PE up to 0.01%; Systemic salicylic acid blood levels ([5]; increasing phenylephrine concentration, FIG. 2h): gradual decline; Concentration in contralateral tissues ([5]; increasing phenylephrine concentrations, FIG. 2a-g): decreased with increasing phenylephrine concentrations; Concentration in deep muscle ([5]; phenylephrine 0.01%): maximum concentrations; Concentration in deep muscle ([5]; phenylephrine above 0.01%): decreases
